Test results as given in ChEMBL document CHEMBL1201862, “PubChem BioAssay data set” (2004).
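Five concentrations, 48 hours, 96-well plates. The concentration for 50% growth inhibition is given as GI50.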 The source made the active and inactive calls. No stated cut-off is given here; in the data, active = GI50 up to about 1.1 µM and inactive = higher.

How the values were obtained:
Experiment in all cases: NCI anticancer screen, dose series, 48 h
786-0 = tested on: 786-0
CCRF-CEM = tested on: CCRF-CEM
HCC 2998 = tested on: HCC 2998
HOP-62 = tested on: HOP-62
HT-29 = tested on: HT-29
MDA-MB-231 = tested on: MDA-MB-231
MDA-MB-435 = tested on: MDA-MB-435
NCI-H226 = tested on: NCI-H226
OVCAR-3 = tested on: OVCAR-3
OVCAR-5 = tested on: OVCAR-5
OVCAR-8 = tested on: OVCAR-8
SK-MEL-28 = tested on: SK-MEL-28
SK-MEL-5 = tested on: SK-MEL-5
SNB-19 = tested on: SNB-19
SR = tested on: SR
U-251 = tested on: U-251
KM12 = tested on: KM12
SK-OV-3 = tested on: SK-OV-3
Hs-578T = tested on: Hs-578T
NCI/ADR-RES = tested on: NCI/ADR-RES

Measured: GI50

Cc1cccc(/N=N/C(=O)NNc2cccc(C)c2C)c1C
inactive: 786-0 35.2 µM | CCRF-CEM > 10 µM | HCC 2998 15 µM | HOP-62 20.7 µM | HT-29 56.9 µM | MDA-MB-231 47.5 µM | MDA-MB-435 26.1 µM | NCI-H226 38.8 µM | OVCAR-3 45.4 µM | OVCAR-5 37 µM | OVCAR-8 33.3 µM | SK-MEL-28 43.6 µM | SK-MEL-5 28.6 µM | SNB-19 45.8 µM | SR 33.2 µM | U-251 35.8 µM

CCN1CCC(O)(c2ccccc2)C(C(=O)c2ccccc2)C1 (stereo not drawn)
inactive: 786-0 17.1 µM | CCRF-CEM 15.7 µM | HCC 2998 > 100 µM | HOP-62 > 100 µM | HT-29 20.4 µM | KM12 45.4 µM | NCI-H226 > 54.1 µM | OVCAR-3 16.3 µM | OVCAR-5 18.2 µM | OVCAR-8 26.4 µM | SK-MEL-28 17.9 µM | SK-MEL-5 33.7 µM | SK-OV-3 > 100 µM | SNB-19 > 100 µM | SR 20.8 µM | U-251 > 100 µM

Cc1cc2c(=O)c(C)n[nH]c2c(C#N)c1C
inactive: 786-0 > 100 µM | CCRF-CEM > 100 µM | HCC 2998 > 100 µM | HOP-62 > 100 µM | HT-29 > 100 µM | NCI-H226 > 100 µM | OVCAR-3 > 100 µM | OVCAR-5 > 100 µM | OVCAR-8 > 100 µM | SK-MEL-28 > 100 µM | SK-OV-3 > 100 µM | SNB-19 > 100 µM | SR > 100 µM | U-251 > 100 µM

O=C(O)C1(C(=O)O)CC1(C(=O)O)C(=O)O
inactive: 786-0 > 100 µM | CCRF-CEM > 100 µM | HCC 2998 > 100 µM | HOP-62 > 100 µM | HT-29 > 100 µM | Hs-578T > 100 µM | KM12 > 100 µM | MDA-MB-231 > 100 µM | NCI-H226 > 100 µM | NCI/ADR-RES > 100 µM | OVCAR-5 > 100 µM | OVCAR-8 > 100 µM | SK-MEL-28 > 100 µM | SK-MEL-5 > 100 µM | SK-OV-3 > 100 µM | SNB-19 > 100 µM | SR > 100 µM | U-251 > 100 µM

CSC1=Nc2ccccc2N=C(c2ccc(Cl)cc2)C1
inactive: 786-0 30.3 µM | CCRF-CEM 27.9 µM | HCC 2998 > 10 µM | HOP-62 > 100 µM | HT-29 23 µM | KM12 36.8 µM | NCI-H226 > 100 µM | OVCAR-3 33.3 µM | OVCAR-5 27.8 µM | OVCAR-8 52.7 µM | SK-MEL-28 42 µM | SK-MEL-5 24.2 µM | SK-OV-3 73.3 µM | SNB-19 > 100 µM | SR 32.1 µM | U-251 33.4 µM

CCCC(=O)OC1C(CO)OC(n2cc(F)c(=O)[nH]c2=O)C1F (stereo not drawn)
inactive: 786-0 38.5 µM | CCRF-CEM 3.91 µM | HOP-62 4.5 µM | HT-29 55.2 µM | Hs-578T 53.7 µM | KM12 > 100 µM | MDA-MB-435 59.4 µM | NCI-H226 > 100 µM | NCI/ADR-RES 11.3 µM | OVCAR-3 54.6 µM | OVCAR-5 > 100 µM | OVCAR-8 72.1 µM | SK-MEL-28 > 100 µM | SK-MEL-5 53.2 µM | SK-OV-3 > 100 µM | SR 5.41 µM | U-251 7.45 µM

CCCCCCCCCCCCCC1CCC(CC)N1 (stereo not drawn)
inactive: 786-0 17.5 µM | CCRF-CEM 5.2 µM | HCC 2998 2.41 µM | HOP-62 7.1 µM | HT-29 5.81 µM | KM12 17.2 µM | NCI-H226 15.3 µM | OVCAR-3 16.2 µM | OVCAR-5 16.6 µM | OVCAR-8 20 µM | SK-MEL-28 7.66 µM | SK-MEL-5 17.8 µM | SK-OV-3 17 µM | SNB-19 16.9 µM | SR 18.9 µM | U-251 7.41 µM

O=[N+]([O-])/C(C(Cl)=C(Cl)Cl)=C(\SCc1ccccc1)N1CCCCC1
inactive: 786-0 15.9 µM | CCRF-CEM 8.34 µM | HCC 2998 23.4 µM | HOP-62 38.4 µM | HT-29 36.6 µM | Hs-578T 27.5 µM | KM12 28 µM | MDA-MB-231 13.3 µM | MDA-MB-435 16.3 µM | NCI-H226 19.7 µM | OVCAR-3 14.1 µM | OVCAR-5 20.4 µM | OVCAR-8 20.6 µM | SK-MEL-28 37.2 µM | SK-MEL-5 15.8 µM | SK-OV-3 40 µM | SNB-19 56.2 µM | SR 8.34 µM | U-251 43.8 µM

NCCCNOCCCN
inactive: 786-0 > 100 µM | HCC 2998 > 100 µM | HOP-62 > 100 µM | HT-29 > 100 µM | KM12 > 100 µM | MDA-MB-231 > 100 µM | MDA-MB-435 > 100 µM | NCI/ADR-RES > 100 µM | OVCAR-3 > 100 µM | OVCAR-5 > 100 µM | OVCAR-8 > 100 µM | SK-MEL-28 > 100 µM | SK-MEL-5 > 100 µM | SK-OV-3 > 100 µM | SNB-19 > 100 µM | SR 2.26 µM | U-251 43.7 µM

CC(=O)Oc1ccc(OC(Oc2ccccc2)c2ccccc2)cc1 (stereo not drawn)
inactive: 786-0 23.8 µM | CCRF-CEM 27.5 µM | HCC 2998 14.7 µM | HOP-62 36.2 µM | HT-29 28.1 µM | KM12 23.2 µM | MDA-MB-231 18.9 µM | MDA-MB-435 32.4 µM | NCI-H226 27 µM | NCI/ADR-RES 50.9 µM | OVCAR-3 21.2 µM | OVCAR-5 27.7 µM | OVCAR-8 37.9 µM | SK-MEL-28 26.2 µM | SK-OV-3 32.6 µM | SNB-19 27.3 µM | SR 14.9 µM | U-251 17.5 µM

NNC(=O)C1CCC(=O)N1S(=O)(=O)c1ccccc1 (stereo not drawn)
inactive: 786-0 > 100 µM | CCRF-CEM > 100 µM | HCC 2998 > 100 µM | HOP-62 > 100 µM | HT-29 > 100 µM | KM12 > 100 µM | NCI-H226 > 100 µM | OVCAR-3 > 100 µM | OVCAR-5 > 100 µM | OVCAR-8 > 100 µM | SK-MEL-28 > 100 µM | SK-MEL-5 > 100 µM | SK-OV-3 > 100 µM | SNB-19 > 100 µM | SR > 100 µM | U-251 > 100 µM

CO[C@@H]1C=C[C@@]23c4cc5c(cc4CN(C[C@@H]2O)[C@H]3C1)OCO5 [(+)-HAEMANTHAMINE]
inactive: 786-0 20.1 µM | CCRF-CEM 8.34 µM | HCC 2998 15.6 µM | HT-29 10.4 µM | KM12 13.5 µM | NCI-H226 25.4 µM | OVCAR-3 46.6 µM | OVCAR-5 41.9 µM | OVCAR-8 27.9 µM | SK-MEL-28 18.9 µM | SK-MEL-5 > 10 µM | SK-OV-3 19.5 µM | SNB-19 33.3 µM | SR 15 µM | U-251 15 µM
